Assay results taken from patent US8283336B2, “Unit dosage for brain health” (N. V. Nutricia, priority 2007, dated 2012).

Test system: APP/PS1 mice
Assay: neurodegeneration (amino-cupric staining of neuritic plaques) in APP/PS1 mice fed enriched diets
Format: in vivo
Conditions: diet fed 3 months from 3 to 6 months of age, compared to control diet
Text: (§1) These mice start showing plaques in their brains as early as 4-5 months of age and are considered a good model for AD in scientific literature.
(§2) The diets were fed for a period of 3 months until the age of 6 months. Thereafter the mice were sacrificed and their brains processed for abeta plaque analyses and neurodegeneration analyses. The brain was cut into thin slices using a vibratome and the slices were stained for abeta using an antibody recognizing human abeta and for neurodegeneration using the amino-cupric staining The total number of plaques in the hippocampus was counted and the total surface of the area covered by plaques (plaque burden) was determined. Total surface area covered with neuritic plaques (staining positive for amino-cupric) was determined to measure the level of neurodegeneration.

SMILES	level of neurodegeneration
O=c1ccn([C@@H]2O[C@H](COP(=O)(O)O)[C@@H](O)[C@H]2O)c(=O)[nH]1 [UMP, uridine monophosphate]	did not differ from the control

Test system: not given
Assay: not given
Conditions: per 1.0 mg of the tocopherol equivalent; cited from earlier work

SMILES	IU vitamin E [IU]	x mg α-TE [mg α-TE]
CC(=O)Oc1c(C)c(C)c2c(c1C)CCC(C)(CCCC(C)CCCC(C)CCCC(C)C)O2 (racemic) [all rac-α-tocopheryl acetate]	1.00	0.67
Cc1c(C)c2c(c(C)c1OC(=O)CCC(=O)O)CC[C@@](C)(CCC[C@H](C)CCC[C@H](C)CCCC(C)C)O2 [RRR-α-tocopheryl succinate]	1.21	0.81
CC(=O)Oc1c(C)c(C)c2c(c1C)CC[C@@](C)(CCC[C@H](C)CCC[C@H](C)CCCC(C)C)O2 [RRR-α-tocopheryl acetate]	1.36	0.91
Cc1c(C)c2c(c(C)c1O)CCC(C)(CCCC(C)CCCC(C)CCCC(C)C)O2 (racemic) [all rac-α-tocopherol]	1.10	0.74
Cc1c(C)c2c(c(C)c1O)CC[C@@](C)(CCC[C@H](C)CCC[C@H](C)CCCC(C)C)O2 [RRR-α-tocopherol]	1.49	1.0
Cc1c(C)c2c(c(C)c1OC(=O)CCC(=O)O)CCC(C)(CCCC(C)CCCC(C)CCCC(C)C)O2 (racemic) [all rac-α-tocopheryl succinate]	0.89	0.60
Cc1cc(O)c(C)c2c1O[C@](C)(CCC[C@H](C)CCC[C@H](C)CCCC(C)C)CC2 [RRR-β-tocopherol]	0.75	0.50
CC(C)=CCC/C(C)=C/CC/C(C)=C/CC[C@]1(C)CCc2c(C)c(O)c(C)c(C)c2O1 [RRR-α-tocotrienol]	0.75	0.50
Cc1c(O)cc2c(c1C)O[C@](C)(CCC[C@H](C)CCC[C@H](C)CCCC(C)C)CC2 [RRR-γ-tocopherol]	0.15	0.10
CC(C)=CCC/C(C)=C/CC/C(C)=C/CC[C@]1(C)CCc2c(C)c(O)cc(C)c2O1 [RRR-β-tocotrienol]	0.08	0.05
Cc1cc(O)cc2c1O[C@](C)(CCC[C@H](C)CCC[C@H](C)CCCC(C)C)CC2 [RRR-δ-tocopherol]	0.05	0.03

Test system: PC12 cells
Assay: survival of PC12 cells during incubation with nutrients
Format: cell-based
Conditions: control medium plus nutrient

SMILES	cell death on incubation
CC/C=C\C/C=C\C/C=C\C/C=C\C/C=C\C/C=C\CCC(=O)O [DHA, docosahexaenoic acid]	led to cell death

Test system: APP/PS1 mice
Assay: abeta plaque burden in hippocampus of APP/PS1 mice fed enriched diets
Format: in vivo
Conditions: diet fed 3 months from 3 to 6 months of age, compared to control diet
Text: as §1, §2

SMILES	plaque burden in the hippocampus
O=c1ccn([C@@H]2O[C@H](COP(=O)(O)O)[C@@H](O)[C@H]2O)c(=O)[nH]1 [UMP, uridine monophosphate]	not affected

Test system: muscarinic acetylcholine receptor
Assay: oxotremorine-induced membrane potential change in PC12 cells after incubation with nutrients (receptor functionality)
Format: cell-based
Conditions: 1 day of incubation, then 50 μM oxotremorine, percentage change compared to control conditions
Protocol: After 1 day of incubation the medium+additions were replaced by control medium and the cells were stimulated with 50 μM oxotremorine, an agonist at the muscarinic acetylcholine receptor, involved in learning and memory. Oxotremorine induces a depolarization of the membrane which can be measured as a change in membrane potential. At a fixed dose of the agonist, increases in membrane potential are thought to reflect improvements in receptor functioning.

SMILES	membrane potential change
O=c1ccn([C@@H]2O[C@H](COP(=O)(O)O)[C@@H](O)[C@H]2O)c(=O)[nH]1 [UMP, uridine monophosphate]	did not affect membrane potential change
